# Values of other authors, collected in patent US6620433B2, “Dispersible and soluble galenic paracetamol formulation, method for its preparation and its applications” (Laboratorios Belmac, S.A., priority 2000, dated 2003).
# What was measured:
# mice = details: interperitoneal administration
smiles,measurement,setting,value
"CC(=O)Nc1ccc(O)cc1 [Paracetamol, N-(4-hydroxyphenyl) acetamide]",solubility in cold water,cold water,barely soluble
same,solubility in ether,ether,barely soluble
same,"solubility in methanol, ethanol, dimethylformamide, ethylene dichloride, acetone and ethyl acetate",organic solvents,soluble
same,"solubility in petroleum ether, pentane and benzene","petroleum ether, pentane, benzene",practically insoluble
same,LD50 in mice,mice,500 mg/kg
